Measured values from US20250262172A1 (ANTECIP BIOVENTURES II LLC, priority 2022, published 2025).

How the values were obtained:
[1] = Clinical trials of the bupropion and dextromethorphan combination, poor metabolizers vs other patients
[2] = Effect of CYP2D6 poor metabolizer status on pharmacokinetics of the 45 mg dextromethorphan hydrobromide / 105 mg bupropion hydrochloride tablet (Example 3, FIG. 1); conditions: CYP2D6 poor metabolizers vs extensive or ultra-extensive metabolizers; after 8 days of twice daily dosing of the tablet
[3] = Pharmacokinetics in 3 CYP2D6 poor metabolizers given bupropion hydrochloride 105 mg and dextromethorphan hydrobromide 45 mg twice a day (Example 1); conditions: 3 poor metabolizers; 105 mg bupropion hydrochloride and 45 mg dextromethorphan hydrobromide twice a day
[4] = CYP2D6 inhibited by quinidine; vs patients who were not CYP2D6 poor metabolizers; cited from earlier work
[5] = 7 days of twice-daily 30 mg dextromethorphan and 30 mg quinidine; cited from earlier work
[6] = Concomitant use of the subject combination with strong CYP2D6 inhibitors; assay type: in vivo, human; conditions: subject combination with one or more strong CYP2D6 inhibitors
From the text: In some embodiments, the subject composition may be co-administered with one or more strong Inhibitors of CYP2D6. […] It is, thus, recommended to monitor patients for adverse effects or adverse reactions potentially attributable to dextromethorphan, such as somnolence and dizziness.

[7] = Steady state pharmacokinetic data in 12 poor metabolizers in efficacy clinical trials (Example 2); conditions: 105 mg bupropion hydrochloride and 45 mg dextromethorphan hydrobromide twice a day
[8] = powder; cited from earlier work

Structure (SMILES) | Cmax and AUC of dextromethorphan in poor metabolizers vs patients who are not poor metabolizers [1] | increase in dextromethorphan AUC0-12 (GMR) [2] [fold] | increase in dextromethorphan Cmax (GMR) [2] [fold] | increase in dextromethorphan AUC0-12 compared to extensive metabolizers [3] [fold] | increase in dextromethorphan Cmax compared to extensive metabolizers [3] [fold] | AUC0-12 of dextromethorphan higher for CYP2D6 poor metabolizers [4] | Cmax of dextromethorphan higher for poor metabolizers [4] | increase in AUC0-12 of poor metabolizers compared to extensive metabolizers [5] [fold] | increase in Cmax of poor metabolizers compared to extensive metabolizers [5] | plasma concentrations of dextromethorphan [6] | plasma concentrations of dextromethorphan vs exposures for non-poor metabolizer [7] | solubility in water [8]
COc1ccc2c(c1)[C@]13CCCC[C@@H]1[C@H](C2)N(C)CC3 [dextromethorphan] | significantly higher | 3.40 | 3.00 | ~3.4 | ~3 | about 46% | about 40% | ~1.46 | about 1.43 fold | increases | generally higher | 
Br.COc1ccc2c(c1)[C@]13CCCC[C@@H]1[C@H](C2)N(C)CC3 [Dextromethorphan hydrobromide, morphinan, 3-methoxy-17-methyl-, (9α, 13α, 14α), hydrobromide monohydrate] |  |  |  |  |  |  |  |  |  |  |  | sparingly soluble
CC(NC(C)(C)C)C(=O)c1cccc(Cl)c1.Cl (racemic) [Bupropion hydrochloride, (±)-1-(3-chlorophenyl)-2-[(1,1-dimethylethyl)amino]-1-propanone hydrochloride] |  |  |  |  |  |  |  |  |  |  |  | highly soluble
